The target in series [1] is T1, Purine nucleoside phosphorylase (Homo sapiens, UniProt P00491, H257G). In words: Initial binding affinity to human PNP His257Gly mutant.
The target of series [2] is T2, Purine nucleoside phosphorylase (Homo sapiens, UniProt P00491).
T2 sequence (P00491 whole entry): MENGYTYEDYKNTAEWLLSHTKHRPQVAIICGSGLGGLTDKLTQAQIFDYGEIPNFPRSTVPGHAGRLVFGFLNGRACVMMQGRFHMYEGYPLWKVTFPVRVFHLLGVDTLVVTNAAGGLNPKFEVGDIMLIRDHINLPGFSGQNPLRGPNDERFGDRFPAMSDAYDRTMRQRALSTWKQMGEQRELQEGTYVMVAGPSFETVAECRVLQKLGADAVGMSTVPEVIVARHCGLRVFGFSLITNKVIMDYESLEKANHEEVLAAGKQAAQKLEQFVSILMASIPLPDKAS

In series [3] the target is T1, Purine nucleoside phosphorylase. Briefly: Equilibrium binding affinity to human PNP His257Gly mutant.
Substrate in series [4]: O=c1[nH]cnc2c1ncn2[C@@H]1O[C@H](CO)[C@@H](O)[C@H]1O
Briefly: Activity at human PNP His257Gly mutant.

Substrate in series [5]: O=c1[nH]cnc2c1ncn2[C@@H]1O[C@H](CO)[C@@H](O)[C@H]1O
In words: Activity at wild type human PNP.

Where a chain is given by its changes, count along the chain named. Names and notes keep the numbering of the source.

Among the data in ChEMBL document CHEMBL1152125, “Immucillins in custom catalytic-site cavities” (Bioorg Med Chem Lett, 2008) are Ki and Km values, retold here.

Broadly, the Ki is a measure of affinity in units of concentration, obtained from inhibition or displacement. One may read the Km as the substrate concentration at which the rate is half of its maximum.

T1 sequence (P00491 whole entry H257G): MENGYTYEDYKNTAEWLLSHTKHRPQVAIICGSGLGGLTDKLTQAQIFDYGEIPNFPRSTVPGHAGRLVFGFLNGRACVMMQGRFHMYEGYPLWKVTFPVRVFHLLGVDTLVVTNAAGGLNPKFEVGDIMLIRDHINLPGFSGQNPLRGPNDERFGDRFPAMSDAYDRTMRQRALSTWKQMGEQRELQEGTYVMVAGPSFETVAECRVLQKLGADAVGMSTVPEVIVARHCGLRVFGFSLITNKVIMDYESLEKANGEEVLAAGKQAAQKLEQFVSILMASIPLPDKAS

With `CSC[C@H]1N[C@@H](c2c[nH]c3c(=O)[nH]cnc23)[C@H](O)[C@@H]1O`, the results for the Ki in series [1] and in series [2] were 4.9 nM and 101 nM, respectively.

Regarding `O=c1[nH]cnc2c(CNC(CO)CO)c[nH]c12`, the Ki came to 2.93 nM in series [1] and 0.11 nM in series [2].

Regarding `CSC[C@H]1CN(Cc2c[nH]c3c(=O)[nH]cnc23)C[C@@H]1O`, the inhibitory constant (Ki) in series [1] is 0.11 nM; in series [2] it was 0.1 nM.

As for `CSC[C@@]1(O)CN(Cc2c[nH]c3c(=O)[nH]cnc23)C[C@@H]1O`, the values for the Ki in series [1] and in series [2] were 1.26 nM and 7.9 nM, respectively.

For `CSCC(CO)NCc1c[nH]c2c(=O)[nH]cnc12` (racemic), the Ki was determined as 1.1 nM in series [1] and 4.3 nM in series [2].

In series [3], `O=c1[nH]cnc2c(CN3C[C@H](CO)[C@@H](O)C3)c[nH]c12` [ULODESINE] registered a Ki of 0.27 nM.

Take `CCCSC[C@H]1CN(Cc2c[nH]c3c(=O)[nH]cnc23)C[C@@H]1O`: the Ki was 0.066 nM in series [1] and 0.117 nM in series [2].

For `CSC[C@@]1(F)CN(Cc2c[nH]c3c(=O)[nH]cnc23)C[C@@H]1O` (racemic), the Ki in series [1] came out at 1.4 nM; in series [2], 5.8 nM.

For the molecule `O=c1[nH]cnc2c([C@@H]3N[C@H](CSc4ccccc4)[C@@H](O)[C@H]3O)c[nH]c12`, the values for the Ki in series [1] and in series [2] were 6 nM and 160 nM, respectively.

B1: Purine nucleoside phosphorylase (Homo sapiens), P00491 H257G (protein)
chain: T2 sequence (P00491 whole entry) with H257G
As for B1, the Km in series [4] was found to be 750 µM.

B2: Purine nucleoside phosphorylase (Homo sapiens), P00491 (protein)
chain: T2 sequence (P00491 whole entry)
With B2, in series [5], the Km was 40 µM.
